Among the data in US8008506B2, “Indazole compounds” (priority 2008, dated 2011) are solubility values, retold here.

In brackets after ≈: the same amount, converted by molar mass.

What is called solubility is the dissolved amount per volume that the medium holds. Read a low solubility as little dissolved substance.

The data set in a line: Test Example 10: saturation solubility in pure water. Type of data set: physicochemical. Particulars: thermodynamic from solid, room temperature, shaken one hour. On the procedure:
Saturation Solubility in Pure Water
A test compound is prepared in pure water to be in the saturated state. This solution is shaken for one hour at room temperature. After the shaking, the entire amount of the solution is transferred into a filter tube, and the solution is filtered by centrifugation. The filtrate is analyzed by HPLC, and the saturation solubility of the test compound is determined using a calibration curve, based on the peak area value.
A standard solution is prepared by precisely weighing each test compound, and preparing a solution that sufficiently dissolves in pure water. The calibration curve is produced by assigning the concentration of the standard solution to the horizontal axis, and assigning the HPLC area peak at the concentration to the vertical axis.
YMC-Pack C18 (4.6 mm×150 mm) (manufactured by YMC Co., Ltd.) is used as a separating column. The detection is performed with UV-254 nm. Elution is carried out at a flow rate of 1 ml/min, using solution A=water [containing 0.1% (v/v) acetic acid] and solution B=acetonitrile as the solvents, under the conditions in which a linear gradient of the solution B is run from 5 to 98% (v/v) from zero minute to 20 minute, subsequently solution B is eluted at 98% up to 25 minute, and the solution B is eluted at 5% from 25.01 minute to 35 minute.
In turn, `CCc1n[nH]c2cc(OCCNC[C@H](O)c3cccc(NS(C)(=O)=O)c3)ccc12` [Example 2, (R)-N-(3-(1-hydroxy-2-(2-(3-ethylindazol-6-yloxy)ethylamino)ethyl)phenyl)methanesulfonamide] returned a solubility at 1 h of 204 mg/mL (≈ 487 mM).

Take `CCCc1n[nH]c2cc(OCCNC[C@H](O)c3cccc(NS(C)(=O)=O)c3)ccc12` [Example 3, (R)-N-(3-(1-hydroxy-2-(2-(3-propylindazol-6-yloxy)ethylamino)ethyl)phenyl)methanesulfonamide]: the concentration in solution (solubility at 1 h) was 50 mg/mL (≈ 116 mM).

In the case of `CS(=O)(=O)Nc1cccc([C@@H](O)CNCCOc2ccc3c(C(F)(F)F)n[nH]c3c2)c1` [Example 4, (R)-N-(3-(1-hydroxy-2-(2-(3-trifluoromethylindazol-6-yloxy)ethylamino)ethyl)phenyl)methanesulfonamide], the solubility at 1 h turned out to be 71 mg/mL (≈ 155 mM).

As for `CN(C)C(=O)CCc1n[nH]c2cc(OCCNC[C@H](O)c3cccc(NS(C)(=O)=O)c3)ccc12` [Example 5, (R)-3-(6-(2-(2-hydroxy-2-(3-(methylsulfonamido)phenyl)ethylamino)ethoxy)-indazol-3-yl)-N,N-dimethylpropanamide], the solubility at 1 h stood at 491 mg/mL (≈ 1000 mM).
